# Source: patent US5227384A, “5-substituted [4,5-c] imidazopyridines and pharmaceutical use thereof” (G. D. Searle & Co., priority 1991, dated 1993)
# Legend:
# rabbit platelets [1] = assay: PAF-induced platelet secretion ([^3 H]serotonin); format: cell-based; details: Oryctolagus cuniculus, washed [^3 H]serotonin-labeled rabbit platelets, 60 sec after PAF, IC50 by inspection of dose-response curves
# Protocol: (§1) PAF-induced platelet aggregation and secretion: Washed, [^3 H]serotonin-labeled rabbit platelets were prepared as previously described in COX, C. P., J. LINDEN and S. I. SAID: VIP elevates platelet cyclic AMP (cAMP) levels and inhibits in vitro platelet activation induced by platelet-activating factor (PAF). Peptides 5:25-28, 1984, and maintained in an atmosphere of 5% CO2 at 37° C. until used in the bioassay. […] Aggregation was continuously monitored on a strip-chart recorder and recorded as the height of the tracing at 60 sec after the addition of PAF. Secretion of [^3 H]serotonin was measured in a sample of the platelet suspension removed at 60 sec after the addition of PAF. The percent inhibition of aggregation and secretion was calculated by comparing antagonist-treated platelets with the appropriate vehicle-treated control platelets. Each combination of antagonist and PAF was repeated 12-15 times, using several different platelet preparations. IC50 values were determined by inspection of the dose-response curves.
# rabbit platelets [2] = assay: PAF-induced platelet aggregation; format: cell-based; details: Oryctolagus cuniculus, washed rabbit platelets, 60 sec after PAF, IC50 by inspection of dose-response curves
# Protocol: as §1
# [3] = target: PAF receptor (Human Platelet Membrane Receptors) (Homo sapiens, UniProt P25105)
# Chain of PAF receptor (Human Platelet Membrane Receptors) (P25105 whole entry): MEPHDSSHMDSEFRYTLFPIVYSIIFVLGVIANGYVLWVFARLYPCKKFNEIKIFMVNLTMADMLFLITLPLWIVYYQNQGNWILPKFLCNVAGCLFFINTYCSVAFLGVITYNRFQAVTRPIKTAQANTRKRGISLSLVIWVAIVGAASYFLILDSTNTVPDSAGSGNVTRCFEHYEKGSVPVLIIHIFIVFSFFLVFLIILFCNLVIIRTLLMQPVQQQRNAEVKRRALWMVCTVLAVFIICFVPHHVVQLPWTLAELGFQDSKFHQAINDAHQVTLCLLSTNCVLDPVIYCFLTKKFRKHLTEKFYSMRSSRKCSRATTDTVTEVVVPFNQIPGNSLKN
Structure (SMILES),IC50 (rabbit platelets [1]; 1 min) [nM],IC50 (rabbit platelets [2]; 1 min) [nM],IC50 [3] [nM],IC50 (rabbit platelets [2]) [nM],IC50 (rabbit platelets [1]) [nM]
"O=C(c1ccc(Cn2ccc3ncnc-3c2)cc1)N(C1CCCC1)C1CCCC1 [5-[4-(N,N-dicyclopentylcarboxamido)benzyl]imidazo[4,5-c]pyridine]",1 to 10,50 to 100,310,–,–
"CC(C)N(C(=O)c1cccc(Cn2ccc3ncnc-3c2)c1)C1CCCCC1 [5-[3-(N-isopropyl-N-cyclohexylcarboxamido)benzyl]imidazo[4,5-c]pyridine]",1000 to 10000,50000 to 100000,–,–,–
"O=C(c1ccc(Cn2ccc3ncnc-3c2)cc1)N(C1CCCCC1)C1CC1 [5-[4-(N-cyclopropyl-N-cyclohexylcarboxamido)benzyl]imidazo[4,5-c]pyridine]",100 to 1000,–,3680,–,–
"O=C(c1ccc(Cn2ccc3ncnc-3c2)cc1)N(C1CCCCC1)C1CCC1 [5-[4-(N-cyclobutyl-N-cyclohexylcarboxamido)benzyl]imidazo[4,5-c]pyridine]",1 to 10,10 to 100,19.9,–,–
"CC1CCC(N(C(=O)c2ccc(Cn3ccc4ncnc-4c3)cc2)C2CCCC2)CC1 (centres unmarked) [5-[4-(N-4-methylcyclohexyl-N-cyclopentylcarboxamido)benzyl]imidazo[4,5-c]pyridine]",10 to 100,100 to 1000,750,–,–
"CCC(CC)N(C(=O)c1ccc(Cn2ccc3ncnc-3c2)cc1)C1CCCCC1 [5-[4-(N-3-pentyl-N-cyclohexylcarboxamido)benzyl]imidazo[4,5-c]pyridine]",10 to 100,100 to 1000,–,–,–
"O=C(NC1CCCCC1)c1ccc(Cn2ccc3ncnc-3c2)cc1 [5-[4-(N-cyclohexylcarboxamido)benzyl]imidazo[4,5-c]pyridine]",100 to 1000,–,19300,10000,–
"COc1cc(C(=O)N(C2CCCC2)C2CCCC2)ccc1Cn1ccc2ncnc-2c1 [5-[4-(N,N-dicyclopentylcarboxamido)-2-methoxybenzyl]imidazo[4,5-c]pyridine]",1 to 10,10 to 100,–,–,–
"O=C(c1ccc(Cn2ccc3ncnc-3c2)c(F)c1)N(C1CCCCC1)C1CCCC1 [5-[4-(N-cyclopentyl-N-cyclohexylcarboxamido)-2-fluorobenzyl]imidazo[4,5-c]pyridine]",1 to 10,10 to 100,75.5,–,–
"CN(C(=O)c1ccc(CCCn2ccc3ncnc-3c2)cc1)C1CCCCC1 [5-[3-[4-(N-methyl-N-cyclohexylcarboxamido)phenyl]propyl]imidazo[4,5-c]pyridine]",1000 to 10000,10000 to 100000,61100,–,–
"CC1CCCC(N(C(=O)c2ccc(Cn3ccc4ncnc-4c3)cc2)C2CCCC2)C1 (centres unmarked) [5-[4-(N-3-methylcyclohexyl-N-cyclopentylcarboxamido)benzyl]imidazo[4,5-c]pyridine]",1 to 10,10 to 100,74,–,–
"COc1cc(C(=O)N(C)C2CCCCC2)ccc1Cn1ccc2ncnc-2c1 [5-[4-(N-methyl-N-cyclohexylcarboxamido)-2-methoxybenzyl]imidazo[4,5-c]pyridine]",100 to 1000,1000 to 10000,–,–,–
"CC(C)(C)CC(C)(C)NC(=O)c1ccc(Cn2ccc3ncnc-3c2)cc1 [5-[4-(N-2(2,4,4-trimethyl)pentylcarboxamide)benzyl]imidazo[4,5-c]pyridine]",–,–,22300,10000,1000
"CN(C(=O)c1cccc(Cn2ccc3ncnc-3c2)c1)C1CCCCC1 [5-[3-(N-methyl-N-cyclohexylcarboxamido)benzyl]imidazo[4,5-c]pyridine]",10000 to 100000,10000 to 100000,–,–,–
"Cc1nc2ccn(Cc3ccc(C(=O)N(C4CCCC4)C4CCCC4)cc3)cc-2n1 [5-[4-(N,N-dicyclopentylcarboxamido)benzyl]-2-methylimidazo[4,5-c]pyridine]",100 to 1000,1000 to 10000,–,–,–
"CN(C(=O)c1ccc(Cn2ccc3ncnc-3c2)cc1)C1CCC2CCCCC2C1 (centres unmarked) [5-[4-(N-2-decalyl-N-methylcarboxamido)benzyl]imidazo[4,5-c]pyridine]",–,–,13200,–,1000
"CN(C(=O)c1ccc(Cn2ccc3ncnc-3c2)c(F)c1)C1CCCCC1 [5-[4-(N,methyl-N-cyclohexylcarboxamido)-2-fluorobenzyl]imidazo[4,5-c]pyridine]",100 to 1000,1000 to 10000,–,–,–
"CCN(C(=O)c1ccc(Cn2ccc3ncnc-3c2)cc1)C1CCCCC1 [5-[4-(N-ethyl-N-cyclohexylcarboxamido)carboxamido)benzyl]imidazo[4,5-c]pyridine]",–,–,5200,1000 to 10000,100 to 1000
"CC(C)N(C(=O)c1ccc(Cn2ccc3ncnc-3c2)cc1)C(C)C [5-[4-(N,N-diisopropylcarboxamido)benzyl]imidazo[4,5-c]pyridine]",–,1000 to 10000,7650,–,–
"O=C(c1ccc(Cn2ccc3ncnc-3c2)cc1)N(C1CCCCC1)C1CCCC1 [5-[4-(N-cyclopentyl-N-cyclohexylcarboxamido)benzyl]imidazo[4,5-c]pyridine]",1 to 10,10 to 100,320,–,–
"CC(C)N(C(=O)c1ccc(Cn2ccc3ncnc-3c2)c(F)c1)C1CCCCC1 [5-[4-(N-isopropyl-N-cyclohexylcarboxamido)-2-fluorobenzyl]imidazo[4,5-c]pyridine]",10 to 100,10 to 100,–,–,–
"Cc1c2ncnc-2ccn1Cc1ccc(C(=O)N(C2CCCC2)C2CCCC2)cc1 [5-[4-(N,N-dicyclopentylcarboxamido)benzyl]-4-methylimidazo[4,5-c]pyridine]",10 to 100,10 to 100,188,–,–
"CC(C)CN(C(=O)c1ccc(Cn2ccc3ncnc-3c2)cc1)C1CCCCC1 [5-[4-(N-isobutyl-N-cyclohexylcarboxamido)benzyl]imidazo[4,5-c]pyridine]",–,–,–,1000,100
"CN(C(=O)c1ccc(CCn2ccc3ncnc-3c2)cc1)C1CCCCC1 [5-[2-[4-(N-methyl-N-cyclohexylcarboxamido)phenyl]ethyl]imidazo[4,5-c]pyridine]",1000 to 10000,10000 to 100000,–,–,–

# Now from value to molecule:
IC50 (rabbit platelets [1]; 1 min) [nM],IC50 (rabbit platelets [2]; 1 min) [nM],IC50 [3] [nM],IC50 (rabbit platelets [2]) [nM],IC50 (rabbit platelets [1]) [nM],Structure (SMILES)
1 to 10,–,–,10,–,"COc1cc(C(=O)N(C2CCCCC2)C2CCCC2)ccc1Cn1ccc2ncnc-2c1 [5-[4{-(N-cyclopentyl,N-cyclohexyl)carboxamido}-2-methoxybenzyl]imidazo[4,5-c]-pyridine]"
–,–,18,–,2,"Cc1cc(C(=O)N(C2CCCCC2)C2CCCC2)ccc1Cn1ccc2ncnc-2c1 [N-cyclohexyl-N-cyclopentyl-4-(5H)-imidazo[4,5-c]pyridin-5-ylmethyl)-3-methylbenzamide]"
–,1000 to 10000,15200,–,720,"CN(C(=O)c1ccc(Cn2ccc3ncnc-3c2)cc1)C1CCCCC1 [5-[4-(N-methyl-N-cyclohexylcarboxamido)benzyl]imidazo[4,5-c]pyridine]"
1 to 10,10 to 100,–,–,–,"CC(C)(C)N(C(=O)c1ccc(Cn2ccc3ncnc-3c2)cc1)C1CCCCC1 [5-[4-(N-tert.butyl-N-cyclohexylcarboxamido)benzyl]imidazo[4,5-c]pyridine]"
–,100 to 1000,1060,–,10,"O=C(c1ccc(Cn2ccc3ncnc-3c2)cc1)N(C1CCCCC1)C1CCCCC1 [5-[(4-(N,N-dicyclohexylcarboxamido)benzyl]imidazo[4,5-c]pyridine]"
100 to 1000,1000 to 10000,9710,–,–,"CCCCCCCCCCNC(=O)c1ccc(Cn2ccc3ncnc-3c2)cc1 [5-[4-(N-n-decylcarboxamido)benzyl]imidazo[4,5-c]pyridine]"
1 to 10,50 to 100,–,–,–,"CCC(C)N(C(=O)c1ccc(Cn2ccc3ncnc-3c2)cc1)C1CCCCC1 (centres unmarked) [5-[4-(N-sec.butyl-N-cyclohexylcarboxamido)benzyl]imidazo[4,5-c]pyridine]"
100 to 1000,1000 to 10000,11000,–,–,"CCCCCCCCNC(=O)c1ccc(Cn2ccc3ncnc-3c2)cc1 [5-[4-(N-n-octylcarboxamido)benzyl]imidazo[4,5-c]pyridine]"
–,100 to 1000,11900,–,–,"CCCCCCCCCCCCNC(=O)c1ccc(Cn2ccc3ncnc-3c2)cc1 [5-[4-(N-n-dodecylcarboxamido)benzyl]imidazo[4,5-c]pyridine]"
100 to 1000,–,2350,1000,–,"O=C(c1ccc(Cn2ccc3ncnc-3c2)cc1)N(c1ccccc1)C1CCCC1 [5-[4-(N-phenyl-N-cyclopentylcarboxamido)benzyl]imidazo[4,5-c]pyridine]"
–,10 to 100,170,–,10,"CC(C)N(C(=O)c1ccc(Cn2ccc3ncnc-3c2)cc1)C1CCCCC1 [5-[4{-(N-isopropylyl,N-cyclohexyl)carboxamido}benzyl]imidazo[4.5-c]pyridine]"
–,–,1,–,1,"COc1cc(Cn2ccc3ncnc-3c2)ccc1C(=O)N(C1CCCC1)C1CC(C)CC(C)C1 (centres unmarked) [N-cyclopentyl-N-(3,5-dimethylcyclohexyl)-4-(5H-imidazo[4,5-c]pyridin-5-ylmethyl)-2-methoxybenzamide]"
–,10 to 100,66.5,–,10,"COc1cc(C(=O)N(C(C)C)C2CCCCC2)ccc1Cn1ccc2ncnc-2c1 [5-[4{-(N-isopropyl,N-cyclohexyl)carboxamido}-2-methoxybenzyl]imidazo[4,5-c]pyridine]"
